What was measured:
Type in all cases: cell-based
[1] = system: SW480 colon cancer cells; test: Cell viability assay (CellTiter-Blue) in SW480 colon cancer cells; conditions: Homo sapiens, 96 h, four days, CellTiter-Blue
Method: Representative compounds were screened using the following assay procedure to assess the effect on cell viability as described below.
Each compound was dissolved in DMSO as a 10 mM stock and used to prepare compound source plates. Serial dilution (1:3, 8-point dose-response curves from 10 μM to 0.0045 μM) and compound transfer was performed using the ECHO 550 (Labcyte, Sunnyvale, Calif.) into 96-well clear bottom, black-walled plates (Corning-Costar).
Approximately 2×10^3 SW480 colon cancer cells were seeded into each well and allowed to incubate in the presence or absence of compound for four days at 37° C./5% CO2. Eight replicates of DMSO-treated cells served as controls and cells treated with compound were performed in duplicate.
After incubation, 20 μL of CellTiter-Blue (Promega) was added to each well allowed to incubate for approximately 3 hours. This reagent was a buffered solution which contains resazurin, metabolically active cells were able to reduce rezarurin (blue) into resorufin (pink) which was highly fluorescent. This measured fluorescence was used as a readout for cell viability.
After incubation, the plates were read at Ex 560 nm Em 590 nm (Cytation 3, BioTek). Dose-response curves were generated and EC50 concentration values were calculated using non-linear regression curve fit in the GraphPad Prism (San Diego, Calif.) or Dotmatics' Studies Software (Bishops Stortford, UK). For EC50 of >10 μM, the percent inhibition at 10 μM is provided.

[2] = system: Primary human fibroblasts derived from IPF patients (LL29 cells) treated with TGF-β1; test: Inhibition of the fibrotic process: αSMA staining in TGF-β1-treated primary human fibroblasts from IPF patients (LL29 cells); conditions: Fibroblast, 96 h, % αSMA-positive LL29 cells, TGF-β1 20 ng/mL, 4 days
Description: Representative compounds were screened using primary human fibroblasts (derived from IPF patients) treated with TGF-β1 to determine their ability to inhibit the fibrotic process.
Primary human fibroblasts derived from IPF patients (LL29 cells) [^1Xiaoqiu Liu, et. al., “Fibrotic Lung Fibroblasts Show Blunted Inhibition by cAMP Due to Deficient cAMP Response Element-Binding Protein Phosphorylation”, Journal of Pharmacology and Experimental Therapeutics (2005), 315(2), 678-687; ^2Watts, K. L., et. al., “RhoA signaling modulates cyclin D1 expression in human lung fibroblasts; implications for idiopathic pulmonary fibrosis”, Respiratory Research (2006), 7(1), 88] were obtained from American Type Culture Collection (ATCC) and expanded in F12 medium supplemented with 15% Fetal Bovine Serum and Penicillin/Streptomycin.
Each compound was dissolved in DMSO as a 10 mM stock and used to prepare compound source plates. Serial dilution (1:2, 11-point dose-response curves from 10 μM to […]) and compound transfer was performed using the ECHO 550 (Labcyte, Sunnyvale, Calif.) into 384-well clear bottom assay plates (Greiner Bio-One) with appropriate DMSO backfill for a final DMSO concentration of 0.1%. LL29 cells are plated at 1,500 cells/well in 80 μL/well F12 medium supplemented with 1% Fetal Bovine Serum. One hour after addition of the cells, TGF-β1 (Peprotech; 20 ng/mL) was added to the plates to induce fibrosis (ref 1 and 2 above). Wells treated with TGF-β1 and containing DMSO were used as controls. Cells were incubated at 37° C. and 5% CO2 for 4 days. Following incubation for 4 days, SYTOX green nucleic acid stain (Life Technologies [Thermo Fisher Scientific]) was added to the wells at a final concentration of 1 μM and incubated at room temperature for 30 min. Cells were then fixed using 4% formaldehyde (Electron Microscopy Sciences), washed 3 times with PBS followed by blocking and permeabilization using 3% Bovine Serum Albumin (BSA; Sigma) and 0.3% Triton X-100 (Sigma) in PBS. Cells were then stained with antibody specific to α-smooth muscle actin (αSMA; Abcam) (ref 1 and 2 above) in 3% Bovine Serum Albumin (BSA; Sigma) and 0.3% Triton X-100 (Sigma) in PBS, and incubated overnight at 4° C. Cells were then washed 3 times with PBS, followed by incubation with Alexa Flor-647 conjugated secondary antibody (Life Technologies [Thermo Fisher Scientific]) and DAPI at room temperature for 1 hour. Cells were then washed 3 times with PBS and plates were sealed for imaging. αSMA staining was imaged by excitation at 630 nm and emission at 665 nm and quantified using the Compartmental Analysis program on the CellInsight CX5 (Thermo Scientific). Dead or apoptotic cells were excluded from analysis based on positive SYTOX green staining. % of total cells positive for αSMA were counted in each well and normalized to the average of 11 wells treated with TGF-β1 on the same plate using Dotmatics' Studies Software. The normalized averages (fold change over untreated) of 3 replicate wells for each compound concentration were used to create dose-responses curves and EC50 values were calculated using non-linear regression curve fit in the Dotmatics' Studies Software. For EC50 of >10 μM, the percent inhibition at 10 μM is provided.

[3] = system: Wnt activity (Sp5-Luc reporter, TCF/LEF binding sites) in SW480 colon carcinoma cells; test: Screening assay for Wnt activity: Sp5-Luc reporter gene assay in stably transduced SW480 colon carcinoma cells; conditions: Homo sapiens, overnight incubation, 10-point curve from 10 μM
Description: The screening assay for Wnt activity is described as follows. Reporter cell lines can be generated by stably transducing cancer cell lines (e.g., colon cancer) or primary cells (e.g., IEC-6 intestinal cells) with a lentiviral construct that includes a Wnt-responsive promoter driving expression of the firefly luciferase gene.
SW480 colon carcinoma cells were transduced with a lentiviral vector expressing luciferase with a human Sp5 promoter consisting of a sequence of eight TCF/LEF binding sites. SW480 cells stably expressing the Sp5-Luc reporter gene and a hygromycin resistance gene were selected by treatment with 150 μg/mL of hygromycin for 7 days. These stably transduced SW480 cells were expanded in cell culture and used for all further screening activities. Each compound was dissolved in DMSO as a 10 mM stock and used to prepare compound source plates. Serial dilution (1:3, 10-point dose-response curves starting from 10 μM) and compound transfer was performed using the ECHO 550 (Labcyte, Sunnyvale, Calif.) into 384-well white solid bottom assay plates (Greiner Bio-One) with appropriate DMSO backfill for a final DMSO concentration of 0.1%. For Sp5-Luc reporter gene assays, the cells were plated at 4,000 cells/well in 384-well plates with medium containing 1% fetal bovine serum and incubated overnight at 37° C. and 5% CO2. Following incubation, 20 μl of BrightGlo luminescence reagent (Promega) was added to each well of the 384-well assay plates. The plates were placed on an orbital shaker for 2 min and then luminescence was quantified using the Envision (Perkin Elmer) plate reader. Readings were normalized to DMSO only treated cells, and normalized activities were utilized for EC50 calculations using the dose-response log (inhibitor) vs. response variable slope (four parameters) nonlinear regression feature available in GraphPad Prism 5.0 (or Dotmatics). For EC50 of >10 μM, the percent inhibition at 10 μM is provided.

[4] = system: IL-6; test: Inhibition of IL-6 in LPS-stimulated THP-1 human monocyte cells (HTRF); conditions: IL-6 inhibition, LPS-stimulated THP-1 cells, HTRF
Method: Human monocyte cell line (THP-1 cells; Catalog # TIB-202, ATCC, Manassas, Va.) were cultured in Roswell Park Memorial Institute (RPMI) 1640 Medium (Catalog #21870-100, Buffalo, N.Y.) with 1% L-glutamine, 1% HEPES, 1% Sodium Pyruvate, 2% Sodium Bicarbonate supplemented with 100 units/mL penicillin, 50 μg/mL streptomycin, 2-mercaptoethanol (0.05 mM) [basal medium] and 10% fetal bovine serum (Catalog #16140089, Life Technologies, Carlsbad, Calif.) at 37° C. and 5% CO2.
THP-1 cells were cultured in basal media with 1% FBS for 24 hours before the start of the assay. Each compound was dissolved in DMSO as a 10 mM stock and used to prepare compound source plates. Serial dilution (1:3, 10-point dose-response curves starting from 10 μM) and compound transfer was performed using the ECHO 550 (Labcyte, Sunnyvale, Calif.) into 384-well white low volume assay plates (Greiner Bio-One) with appropriate DMSO backfill for a final DMSO concentration of 0.1%. THP-1 cells were plated at 5000 cells/well in the 384-well plates and incubated at 37° C. for 2 h. 500 ng/mL of LPS was added after 2 hours and cells were incubated for another 22 hours at 37° C. Plates were spun in a centrifuge for 1 minute at […] and a mixture of anti-IL6 XL665, and anti-IL6 Cryptate diluted in reconstitution buffer (Cisbio Inc.) was added to each well. Following incubation for 3 hrs at room temperature, Homogeneous Time-Resolved Fluorescence (HTRF) was measured using the Envision (Perkin Elmer) at 665 nm and […]. The ratio of fluorescence at 665 nm to 620 nm was used as a readout for IL6 quantification. All samples were processed in duplicate. Readings were normalized to DMSO treated cells and normalized activities were utilized for EC50 calculations using the dose-response log (inhibitor) vs. response variable slope (four parameters) nonlinear regression feature available in GraphPad Prism 5.0 (or Dotmatics). For EC50 of >10 μM, the percent inhibition at 10 μM is provided.

SMILES	EC50 [1]	EC50 [2]	EC50 [3]	EC50 [4]
CC(C)(C)CC(=O)Nc1cncc(-c2ccc3[nH]nc(-c4cc5c(-c6cccnc6)cccc5[nH]4)c3c2)c1 [Compound 100, 3,3-Dimethyl-N-(5-(3-(4-(pyridin-3-yl)-1H-indol-2-yl)-1H-indazol-5-yl)pyridin-3-yl)butanamide]	1870 nM	449 nM	475 nM	174 nM
O=C(Nc1cncc(-c2ccc3[nH]nc(-c4cc5c(-c6cccnc6)cccc5[nH]4)c3c2)c1)C1CCC1 [Compound 105, N-(5-(3-(4-(Pyridin-3-yl)-1H-indol-2-yl)-1H-indazol-5-yl)pyridin-3-yl) cyclobutanecarboxamide]	597 nM	144 nM	110 nM	174 nM
CC(C)CC(=O)Nc1cncc(-c2ccc3[nH]nc(-c4cc5c(-c6ccncc6)cccc5[nH]4)c3c2)c1 [Compound 114, 3-Methyl-N-(5-(3-(4-(pyridin-4-yl)-1H-indol-2-yl)-1H-indazol-5-yl)pyridin-3-yl)butanamide]	1630 nM	331 nM	450 nM	306 nM
CC(C)(C)C(=O)Nc1cncc(-c2ccc3[nH]nc(-c4cc5c(-c6ccncc6)cccc5[nH]4)c3c2)c1 [Compound 120, N-(5-(3-(4-(Pyridin-4-yl)-1H-indol-2-yl)-1H-indazol-5-yl)pyridin-3-yl) pivalamide]	1450 nM	218 nM	600 nM	445 nM
CC(C)CC(=O)Nc1cncc(-c2ccc3[nH]nc(-c4cc5c(-c6ccccn6)cccc5[nH]4)c3c2)c1 [Compound 142, 3-Methyl-N-(5-(3-(4-(pyridin-2-yl)-1H-indol-2-yl)-1H-indazol-5-yl)pyridin-3-yl)butanamide]	918 nM	312 nM	185 nM	164 nM
CCNCc1cncc(-c2ccc3[nH]nc(-c4cc5c(-c6ccccn6)cccc5[nH]4)c3c2)c1 [Compound 146, N-((5-(3-(4-(Pyridin-2-yl)-1H-indol-2-yl)-1H-indazol-5-yl)pyridin-3-yl)methyl)ethanamine]	1000 nM	1410 nM	525 nM	529 nM
O=C(Nc1cncc(-c2ccc3[nH]nc(-c4cc5c(-c6ccccn6)cccc5[nH]4)c3c2)c1)C1CCCC1 [Compound 162, N-(5-(3-(4-(Pyridin-2-yl)-1H-indol-2-yl)-1H-indazol-5-yl)pyridin-3-yl) cyclopentanecarboxamide]	1740 nM	266 nM	360 nM	314 nM
c1ccc(CNCc2cncc(-c3ccc4[nH]nc(-c5cc6c(-c7ccccn7)cccc6[nH]5)c4c3)c2)cc1 [Compound 164, N-Benzyl-1-(5-(3-(4-(pyridin-2-yl)-1H-indol-2-yl)-1H-indazol-5-yl)pyridin-3-yl)methanamine]	2290 nM	191 nM	564 nM	214 nM
Cc1ccncc1-c1ccc2[nH]nc(-c3cc4c(N5CCCCC5)cccc4[nH]3)c2c1 [Compound 173, 5-(4-Methylpyridin-3-yl)-3-(4-(piperidin-1-yl)-1H-indol-2-yl)-1H-indazole]	1980 nM	1780 nM	865 nM	4310 nM
O=C(Cc1ccccc1)Nc1cncc(-c2ccc3[nH]nc(-c4cc5c(N6CCCCC6)cccc5[nH]4)c3c2)c1 [Compound 178, 2-Phenyl-N-(5-(3-(4-(piperidin-1-yl)-1H-indol-2-yl)-1H-indazol-5-yl)pyridin-3-yl)acetamide]	3720 nM	989 nM	811 nM	1290 nM
CCCC(=O)Nc1cncc(-c2ccc3[nH]nc(-c4cc5c(N6CCCCC6)cccc5[nH]4)c3c2)c1 [Compound 185, N-(5-(3-(4-(Piperidin-1-yl)-1H-indol-2-yl)-1H-indazol-5-yl)pyridin-3-yl) butyramide]	1840 nM	682 nM	469 nM	7150 nM

Reference: patent US10604512B2, “3-(1H-indol-2-yl)-1H-indazoles and therapeutic uses thereof” (Samumed, LLC, priority 2015, dated 2020)
